The record followed here is US8828401B2, “Cytotoxic peptides and antibody drug conjugates thereof” (Pfizer Inc., priority 2011, dated 2014).

What all share (test): In vitro cell assay, MTS cell viability 96 hours after treatment
Holding throughout (format): cell-based

One test relates to BT474 (breast cancer). As to conditions: Homo sapiens, BT-474, BT474 cells; geometric mean; cytotoxic peptides; read-out: BT474 GMEAN IC50. The method in brief: (§1)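 MTS read-out 96 h post-treatment; viability as % of untreated control. ADCs or free drug, 3-fold serial dilution, 10 concentrations, duplicates.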
The test system of test [1] is MDA-MB-361-DYT2 (breast cancer). Conditions: read-out: MDA-MB-361-DYT2 GMEAN IC50, MDA-MB-361-DYT2 cells; geometric mean; cytotoxic peptides. A digest of the protocol:
as §1

A further test concerns N87 (gastric cancer). As to conditions: read-out: N87 GMEAN IC50, N87 cells; geometric mean; cytotoxic peptides. A digest of the protocol:
as §1

Broadly, the IC50 is the concentration that gives 50% inhibition.

Molecules are shown by their SMILES. Starred links: 1 amine or outer side, 2 acyl side, 3 side chain; linkers in the order of their positions; H or OH if unused. Non-standard residues stand in square brackets, D forms with d. Residues, ends and D or L forms follow the SMILES beside them. *: point of attachment. Dolaproine = CO[C@@H]([C@@H]1CCCN1)[C@@H](C)C(=O)O; Dil = CC[C@H](C)[C@H](NC)[C@@H](CC(=O)O)OC; X7 = C[C@@]1(C(=O)[*:2])CCCCN1[*:1]; NMeαMePro = CN1CCC[C@@]1(C)C(=O)*; dαMePip = C[C@]1(C(=O)O)CCCCN1; Ac4c(3-oxa) = NC1(C(=O)O)COC1; NHPhenethyl = c1ccc(CCN*)cc1; αMeV = CC(C)[C@](C)(N)C(=O)O; αMeP = C[C@@]1(C(=O)O)CCCN1; NMeAib = CNC(C)(C)C(=O)O; Aib = CC(C)(N)C(=O)O; OtBu = CC(C)(C)O*

Turning to `CC[C@H](C)[C@@H]([C@@H](CC(=O)N1CCC[C@H]1[C@H](OC)[C@@H](C)C(=O)NCCc1ccccc1)OC)N(C)C(=O)[C@@H](NC(=O)C1(N)COC1)C(C)C` [#75, N^2-[(3-aminooxetan-3-yl)carbonyl]-N-{(3R,4S,5S)-3-methoxy-1-[(2S)-2-{(1R,2R)-1-methoxy-2-methyl-3-oxo-3-[(2-phenylethyl)amino]propyl}pyrrolidin-1-yl]-5-methyl-1-oxoheptan-4-yl}-N-methyl-L-valinamide] (H-[Ac4c(3-oxa)]V[Dil][Dolaproine]-NHPhenethyl), the IC50 (with BT474 (breast cancer); in test [1]; with N87 (gastric cancer)) was > 100 nM in each case.
`CC[C@H](C)[C@@H]([C@@H](CC(=O)N1CCC[C@H]1[C@H](OC)[C@@H](C)C(=S)N[C@@H](Cc1ccccc1)C(=O)OC)OC)N(C)C(=O)[C@@H](NC(=O)C(C)(C)NC)C(C)C` [#79, N,2-dimethylalanyl-N-[(3R,4S,5S)-3-methoxy-1-{(2S)-2-[(1R,2R)-1-methoxy-3-{[(2S)-1-methoxy-1-oxo-3-phenylpropan-2-yl]amino}-2-methyl-3-thioxopropyl]pyrrolidin-1-yl}-5-methyl-1-oxoheptan-4-yl]-N-methyl-L-valinamide]: the 50% inhibitory concentration (IC50) in the test on BT474 (breast cancer) worked out at 0.079 nM; in test [1], 0.129 nM; in the test on N87 (gastric cancer), 0.137 nM.
For `CC[C@H](C)[C@@H]([C@@H](CC(=O)N1CCC[C@H]1[C@H](OC)[C@@H](C)C(=S)N[C@@H](Cc1ccccc1)C(=O)O)OC)N(C)C(=O)[C@@H](NC(=O)C(C)(C)NC)C(C)C` [#80, N,2-dimethylalanyl-N-[(3R,4S,5S)-1-{(2S)-2-[(1R,2R)-3-{[(1S)-1-carboxy-2-phenylethyl]amino}-1-methoxy-2-methyl-3-thioxopropyl]pyrrolidin-1-yl}-3-methoxy-5-methyl-1-oxoheptan-4-yl]-N-methyl-L-valinamide] the same measures were 20.3 nM, 32.8 nM and 28.2 nM.
Consider `CC[C@H](C)[C@@H]([C@@H](CC(=O)N1CCC[C@H]1[C@H](OC)[C@@H](C)C(=S)N[C@@H](Cc1ccccc1)c1nccs1)OC)N(C)C(=O)[C@@H](NC(=O)C(C)(C)NC)C(C)C` [#84, N,2-dimethylalanyl-N-[(3R,4S,5S)-3-methoxy-1-{(2S)-2-[(1R,2R)-1-methoxy-2-methyl-3-{[(1S)-2-phenyl-1-(1,3-thiazol-2-yl)ethyl]amino}-3-thioxopropyl]pyrrolidin-1-yl}-5-methyl-1-oxoheptan-4-yl]-N-methyl-L-valinamide], for which the half-inhibitory concentration (IC50) in the test on BT474 (breast cancer) stood at 0.246 nM; in test [1], 0.686 nM; in the test with N87 (gastric cancer), 0.426 nM.
On to `CC[C@H](C)[C@@H]([C@@H](CC(=O)N1CCC[C@H]1[C@H](OC)[C@@H](C)C(=O)N[C@@H](Cc1ccccc1)C(=O)O)OC)N(C)C(=O)[C@@H](NC(=O)C(C)(C)NC)C(C)C` [#115, N,2-dimethylalanyl-N-{(1S,2R)-4-{(2S)-2-[(1R,2R)-3-{[(1S)-1-carboxy-2-phenylethyl]amino}-1-methoxy-2-methyl-3-oxopropyl]pyrrolidin-1-yl}-2-methoxy-1-[(1S)-1-methylpropyl]-4-oxobutyl}-N-methyl-L-valinamide] (H-[NMeAib]V[Dil][Dolaproine]F-OH), for which the half-inhibitory concentration (IC50) is 31.5 nM in the test with BT474 (breast cancer), 19.9 nM in test [1] and 50.3 nM with N87 (gastric cancer).
As to `CC[C@H](C)[C@@H]([C@@H](CC(=O)N1CCC[C@H]1[C@H](OC)[C@@H](C)C(=O)N[C@@H](Cc1ccccc1)C(=O)O)OC)N(C)C(=O)[C@@H](NC(=O)[C@]1(C)CCCN1)C(C)C` [#118, 2-methyl-L-prolyl-N-[(3R,4S,5S)-1-{(2S)-2-[(1R,2R)-3-{[(1S)-1-carboxy-2-phenylethyl]amino}-1-methoxy-2-methyl-3-oxopropyl]pyrrolidin-1-yl}-3-methoxy-5-methyl-1-oxoheptan-4-yl]-N-methyl-L-valinamide] (H-[αMeP]V[Dil][Dolaproine]F-OH), the IC50 (with BT474 (breast cancer); in test [1]; in the test with N87 (gastric cancer)) was ≥ 100 nM each time.
In the case of `CC[C@H](C)[C@@H]([C@@H](CC(=O)N1CCC[C@H]1[C@H](OC)[C@@H](C)C(=O)N[C@@H](Cc1ccccc1)C(=O)OC(C)(C)C)OC)N(C)C(=O)[C@@H](NC(=O)C(C)(C)N)C(C)C` [#123, 2-methylalanyl-N-[(3R,4S,5S)-1-{(2S)-2-[(1R,2R)-3-{[(2S)-1-tert-butoxy-1-oxo-3-phenylpropan-2-yl]amino}-1-methoxy-2-methyl-3-oxopropyl]pyrrolidin-1-yl}-3-methoxy-5-methyl-1-oxoheptan-4-yl]-N-methyl-L-valinamide] (H-[Aib]V[Dil][Dolaproine]F-OtBu), the IC50 with BT474 (breast cancer) came to 0.125 nM; in test [1], 0.129 nM; in the test with N87 (gastric cancer) it was 0.089 nM.
The corresponding values for `CC[C@H](C)[C@@H]([C@@H](CC(=O)N1CCC[C@H]1[C@H](OC)[C@@H](C)C(=O)N[C@@H](Cc1ccccc1)C(=O)OC)OC)N(C)C(=O)[C@@H](NC(=O)[C@@](C)(N)C(C)C)C(C)C` [#147, 3-methyl-L-isovalyl-N-{(1S,2R)-4-{(2S)-2-[(1R,2R)-3-{[(1S)-1-benzyl-2-methoxy-2-oxoethyl]amino}-1-methoxy-2-methyl-3-oxopropyl]pyrrolidin-1-yl}-2-methoxy-1-[(1S)-1-methylpropyl]-4-oxobutyl}-N-methyl-L-valinamide] (H-[αMeV]V[Dil][Dolaproine]F-OMe) are 0.456 nM, 0.421 nM and 0.144 nM.
For `CC[C@H](C)[C@@H]([C@@H](CC(=O)N1CCC[C@H]1[C@H](OC)[C@@H](C)C(=O)N[C@@H](Cc1ccccc1)C(=O)O)OC)N(C)C(=O)[C@@H](NC(=O)[C@]1(C)CCCN1C)C(C)C` [#151, 1,2-dimethyl-L-prolyl-N-{(1S,2R)-4-{(2S)-2-[(1R,2R)-3-{[(1S)-1-carboxy-2-phenylethyl]amino}-1-methoxy-2-methyl-3-oxopropyl]pyrrolidin-1-yl}-2-methoxy-1-[(1S)-1-methylpropyl]-4-oxobutyl}-N-methyl-L-valinamide] (NMeαMePro-V[Dil][Dolaproine]F-OH) the same measures were 84.9 nM, 84.6 nM and 62 nM.
In the case of `CC[C@H](C)[C@@H]([C@@H](CC(=O)N1CCC[C@H]1[C@H](OC)[C@@H](C)C(=O)N[C@@H](Cc1ccccc1)c1nccs1)OC)N(C)C(=O)[C@@H](NC(=O)C(C)(C)CNC)C(C)C` [#154, N˜2˜-[2,2-dimethyl-3-(methylamino)propanoyl]-N-{(1S,2R)-2-methoxy-4-{(2S)-2-[(1R,2R)-1-methoxy-2-methyl-3-oxo-3-{[(1S)-2-phenyl-1-(1,3-thiazol-2-yl)ethyl]amino}propyl]pyrrolidin-1-yl}-1-[(1S)-1-methylpropyl]-4-oxobutyl}-N-methyl-L-valinamide], the half-inhibitory concentration (IC50) came out at 0.193 nM with BT474 (breast cancer), 0.198 nM in test [1] and 0.572 nM with N87 (gastric cancer).
Regarding `CC[C@H](C)[C@@H]([C@@H](CC(=O)N1CCC[C@H]1[C@H](OC)[C@@H](C)C(=O)N[C@@H](Cc1ccccc1)C(=O)OC)OC)N(C)C(=O)[C@@H](NC(=O)C(C)(C)CNC)C(C)C` [#155, methyl N-{(2R,3R)-3-[(2S)-1-{(3R,4S,5S)-4-[{N-[2,2-dimethyl-3-(methylamino)propanoyl]-L-valyl}(methyl)amino]-3-methoxy-5-methylheptanoyl}pyrrolidin-2-yl]-3-methoxy-2-methylpropanoyl}-L-phenylalaninate], the values for the half-maximal inhibitory concentration (IC50) (in the test with BT474 (breast cancer); in test [1]; in the test with N87 (gastric cancer)) were 0.323 nM, 0.318 nM and 0.875 nM, respectively.
Turning to `CC[C@H](C)[C@@H]([C@@H](CC(=O)N1CCC[C@H]1[C@H](OC)[C@@H](C)C(=O)N[C@@H](Cc1ccccc1)C(=O)O)OC)N(C)C(=O)[C@@H](NC(=O)[C@]1(C)CCCCN1)C(C)C` [#162, N-{(2R,3R)-3-methoxy-3-[(2S)-1-{(3R,4S,5S)-3-methoxy-5-methyl-4-[methyl(N-{[(2S)-2-methylpiperidin-2-yl]carbonyl}-L-valyl)amino]heptanoyl}pyrrolidin-2-yl]-2-methylpropanoyl}-L-phenylalanine] (H-[X7]V[Dil][Dolaproine]F-OH), the 50% inhibitory concentration (IC50) in the test with BT474 (breast cancer) is 31.4 nM; in test [1] it was 27.8 nM; in the test on N87 (gastric cancer) it was 21.6 nM.
In the case of `CC[C@H](C)[C@@H]([C@@H](CC(=O)N1CCC[C@H]1[C@H](OC)[C@@H](C)C(=O)N[C@@H](Cc1ccccc1)C(=O)O)OC)N(C)C(=O)[C@@H](NC(=O)[C@@]1(C)CCCCN1)C(C)C` [#163, N-{(2R,3R)-3-methoxy-3-[(2S)-1-{(3R,4S,5S)-3-methoxy-5-methyl-4-[methyl(N-{[(2R)-2-methylpiperidin-2-yl]carbonyl}-L-valyl)amino]heptanoyl}pyrrolidin-2-yl]-2-methylpropanoyl}-L-phenylalanine] (H-[dαMePip]V[Dil][Dolaproine]F-OH), the IC50 is ≥ 100 nM with BT474 (breast cancer), 99.4 nM in test [1] and 72.7 nM with N87 (gastric cancer).
For the compound `CC[C@H](C)[C@@H]([C@@H](CC(=O)N1CCC[C@H]1[C@H](OC)[C@@H](C)C(=O)N[C@@H](Cc1ccccc1)C(=O)OC)OC)N(C)C(=O)[C@@H](NC(=O)[C@@]1(F)CCNC1)C(C)C` [#172, methyl N-{(2R,3R)-3-[(2S)-1-{(3R,4S,5S)-4-[(N-{[(3R)-3-fluoropyrrolidin-3-yl]carbonyl}-L-valyl)(methyl)amino]-3-methoxy-5-methylheptanoyl}pyrrolidin-2-yl]-3-methoxy-2-methylpropanoyl}-L-phenylalaninate], the concentration for half-maximal inhibition (IC50) in the test with BT474 (breast cancer) worked out at 0.057 nM; in test [1], 0.086 nM; in the test on N87 (gastric cancer), 0.144 nM.
